Assay results as given in patent US7763287B2, “Extract of Cercis chinensis having anti-oxidant activity and anti-aging activity, and cosmetical composition containing the extract for anti-oxidation, skin-aging protection and wrinkle improvement” (Hankook Pharm. Co., Inc., priority 2002, dated 2010).

Columns and labels:
[1] = Superoxide radical scavenging activity (xanthine/xanthine oxidase, NBT); type: biochemical; conditions: Table 6
Method: Superoxide radical (O^2−) itself has a little reactivity, but is easily changed into H2O2 that generates hydroxyl radical having strong reactivity or is reacted with nitric oxide (NO.) to generate peroxy nitrite (ONOO^−) having strong reactivity, too. Thus, it might be a reason for oxidation of SH-group, nitration of protein tyrosine, lipid peroxidation and DNA damage. […] Basically, measurement of superoxide radical scavenging activity was performed by investigating the activity of superoxide dismutase (SOD), an enzyme scavenging superoxide by dismutation of the same. In the present invention, an activity of a sample to inhibit superoxide production by the enzyme reaction of xanthine/xanthine oxidase and its another activity to inhibit reaction (NBT+20^2−→NBTH2+2O2) generating formazan by reduction of nitro blue tetrazolium (referred as ‘NBT’ hereinafter) were measured. Particularly, wells of a 96-well plate were supplemented with 50 μl of 4 mM xanthine (Sigma), 50 μl of […] NBT (Sigma), 50 μl of 50 mM phosphate buffer (pH 7.8, 1 mM EDTA) and 10 μl of each sample, into which 40 μl of xanthine oxidase was added to induce a reaction. After the reaction was completed, each reaction solution was collected as scheduled, and OD550 was measured with an ELISA reader. […] Superoxide Radical Scavenging Activity (%)=(Acontrol−Asample)/(Acontrol−Ablank)×100 <Mathematical Formula 4> […]

HEK-N/F cells = experiment: Protection of cells from oxidative damage induced by t-butylhydroperoxide; type: cell-based, human; conditions: 1.5 mM t-butylhydroperoxide 3 hours; for TBARS (pmol/mg protein): compound 50.0 µg/ml
Method: t-butylhydroperoxide is metabolized into a free radical intermediate as it comes in a cell, so that it causes lipid peroxidation, resulting in cell damage. This phenomenon is similar to that caused by oxidataive stress accumulated in cells and tissues. […] HEK-N/F, an epidermal cell line of a newborn baby, was treated with 1.5 mM of t-butylhydroxyperoxide for 3 hours.

rat brain homogenates = experiment: Lipid peroxidation inhibitory activity (Fe2+/ascorbic acid, TBA method); conditions: Table 4
[2] = DPPH radical scavenging activity; type: biochemical; conditions: for DPPH radical scavenging activity IC50: Table 3
Method: In order to extract an effective ingredient having an anti-oxidant activity from Cercis chinensis, an experiment was performed following the procedure represented in a schematic diagram of FIG. 1. Particularly, 1 kg of leaves and stems of Cercis chinensis, dried in shadow, were grinded to powder using a pulverizer, which was extracted by ethanol (EtOH) at room temperature twice at intervals of two weeks. For the extraction, ethanol solutions were prepared by adding ethanol gradually, 10% at a time, from 0% to 100%. The prepared ethanol solutions were used for the extraction. […] But, it looses absorbance when being scavenged. Based on that point, an anti-oxidant activity can be measured using DPPH. […] Then, each solution was distributed into a 96 well plate by 10 μl each, into which 190 μl of DPPH(Sigma, St. Louis, Mo, USA) solution whose ethanol concentration was 2×10^−4 M/ml was added. The plate was just left at room temperature for 30 minutes. Finally, OD517 was measured at 517 nm. For a control, DMSO was added instead of the sample, and changes of optical density were investigated. […] DDPH Radical Scavenging Activity (%)=(Acontrol−Asample)/(Acontrol)×100 <Mathematica Formula 1>
Acontrol: Optical density of control group (sample was not added),
Asample: Optical density of experimental group (sample was added).
In order to identify a fraction having an anti oxidant activity among hexane Fr, EtOAc Fr and BuOH Fr obtained above, a DPPH radical scavenging activity was measured using each extract of each fraction following the method used above. At this time, vitamin E, known to have high DPPH radical scavenging activity, was used as a comparing group.
At this time, BHA (tert-butyl-4 hydroxyanisole) and α-tocopherol, synthetic anti-oxidant agents, were used as positive controls.

[3] = Hydroxyl radical scavenging activity (deoxyribose/TBA, method of Halliwell); type: biochemical; conditions: 10 μg of sample, total volume 1 ml
Method: Hydroxyl radical (HO.) is generated by the reaction of a metal ion or a superoxide radical. Owing to its strong reactivity, hydroxyl radical causes oxidative damages to DNA, protein and lipid in vivo. Nitric oxide (NO.) is reacted with a superoxide radical to generate a peroxy nitrite (ONOO—), also having strong reactivity. […] Particularly, each compound was mixed with 10 μg of a sample dissolved in DMSO, phosphate buffer (20 mM, pH 7.4) 5.6 mM deoxyribose, 0.1 mM FeCl3, 1 mM H2O2 and 0.1 mM ascorbic acid, making total volume 1 ml, which was then reacted at 37° C. for 60 minutes. 250 μl of 20% TCA and 250 μl of 1% TBA solution (dissolved in 50 mM NaOH) were added to the reaction solution, followed by thermal reaction at 95° C. for 5 minutes. After completing the reaction, OD532 was measured. Hydroxyl radical scavenging activity was calculated by the below
<Mathematical Formula 3>. BHA and α-tocopherol were used for a positive control. Hydroxyl Radical Scavenging Activity (%)=(Acontrol−Asample)/(Acontrol−Ablank)×100 <Mathematical Formula 3>
Acontrol: Optical density of control group well (sample was not added),
Asample: Optical density of experimental group well (sample was added),
Ablank: Optical density of well not added with sample, TCA and TBA

[4] = Nitric oxide scavenging activity; type: biochemical; parameters: Nitric oxide scavenging activity (%): concentration or dose not given beside the values

Row | Compound | Superoxide radical scavenging activity IC50 [1] | Lipid Peroxidation Inhibitory Activity IC50 (rat brain homogenates) | DPPH radical scavenging activity IC50 [2] | DPPH radical scavenging IC50 ([2]; fractions of the 60% ethanol extract) | Cell survival rate (%) (HEK-N/F cells) | TBARS (pmol/mg protein) (HEK-N/F cells) | Hydroxyl radical scavenging activity (%) [3] | Nitric oxide scavenging activity (%) [4]
1 | O=C(O)/C=C/c1ccc(O)c(O)c1 [Caffeic acid, caffeic acid, reference compound] | 11.0 ± 1.8 µg/mL |  |  |  |  |  |  | 
2 | O=C(/C=C/c1ccc(O)cc1)c1ccc(O)cc1O [Chemical Formula 1, isoliquiritigenin] |  | 3.33 ± 0.50 µg/mL |  |  | 13.9 ± 12.6% | 5118.1 ± 410.5 pmol/mg protein |  | 
3 | O=C1C[C@@H](c2ccc(O)cc2)Oc2cc(O)ccc21 [Chemical Formula 3, liquiritigenin] | 59.2 ± 3.8 µg/mL | 6.05 ± 0.99 µg/mL | >50 µg/mL |  | 12.1 ± 1.0% | 8255.1 ± 576.4 pmol/mg protein | 3.2% | 
4 | C[C@@H]1O[C@@H](Oc2c(-c3ccc(O)cc3)oc3cc(O)cc(O)c3c2=O)[C@H](O)[C@H](O)[C@H]1O [Chemical Formula 10, afzelin] |  |  |  |  | 16.8 ± 1.3% | 3295.1 ± 304.5 pmol/mg protein |  | 
5 | C[C@@H]1O[C@@H](Oc2c(-c3ccc(O)c(O)c3)oc3cc(O)cc(O)c3c2=O)[C@H](O)[C@H](O)[C@H]1O [Chemical Formula 11, quercitrin] |  |  |  |  |  | 2217.2 ± 200.3 pmol/mg protein |  | 
6 | COc1cc(-c2oc3cc(O)cc(O)c3c(=O)c2O[C@@H]2O[C@H](CO[C@@H]3O[C@@H](C)[C@H](O)[C@@H](O)[C@H]3O)[C@@H](O)[C@H](O)[C@H]2OC(=O)c2cc(O)c(O)c(O)c2)cc(OC)c1O [Chemical Formula 15, syringetin-3-O-(2″-O-galloyl)-rutinoside] | 37.1 ± 2.0 µg/mL | 10.10 ± 1.02 µg/mL | 29.2 ± 1.8 µg/mL |  |  |  | 16.4% | 14.1 ± 1.4%
7 | tert-butyl-4-hydroxyanisole [BHA, reference compound] | 48.8 ± 2.5 µg/mL | 0.11 ± 0.02 µg/mL | 15.3 ± 0.6 µg/mL |  |  |  | 15.6% | 

Continued, in another order:

Row | Superoxide radical scavenging activity IC50 [1] | Lipid Peroxidation Inhibitory Activity IC50 (rat brain homogenates) | DPPH radical scavenging activity IC50 [2] | DPPH radical scavenging IC50 ([2]; fractions of the 60% ethanol extract) | Compound | Cell survival rate (%) (HEK-N/F cells) | TBARS (pmol/mg protein) (HEK-N/F cells) | Hydroxyl radical scavenging activity (%) [3] | Nitric oxide scavenging activity (%) [4]
8 | 49.8 ± 3.1 µg/mL | 12.81 ± 1.86 µg/mL | >50 µg/mL |  | COc1ccc(/C=C/C(=O)c2ccc(O)cc2O)cc1 [Chemical Formula 2, 2′,4′-dihydroxy-4-methoxychalcone] | 16.2 ± 3.2% | 3449.7 ± 305.8 pmol/mg protein | 4.5% | 
9 |  | 0.89 ± 0.10 µg/mL |  |  | Oc1ccc(C=Cc2cc(O)cc(O)c2)cc1 [Chemical Formula 4, resveratrol] | 18.1 ± 1.6% | 2792.4 ± 259.1 pmol/mg protein |  | 
10 |  | 6.80 ± 0.63 µg/mL | 5.1 ± 0.4 µg/mL |  | O=C(O)c1cc(O)c(O)c(O)c1 [Chemical Formula 6, gallic acid] | 41.5±3.1% | 1245.7 ± 112.4 pmol/mg protein | 33.6% | 25.0 ± 2.0%
11 |  | 6.61 ± 0.95 µg/mL | 25.4 ± 0.9 µg/mL |  | Cc1c(C)c2c(c(C)c1O)CC[C@@](C)(CCC[C@H](C)CCC[C@H](C)CCCC(C)C)O2 [α-tocopherol, reference compound] |  |  | 0.8% | 
12 |  |  |  | 24.9 µg/mL | vitamin E [reference compound] |  |  |  | 
